The source of these data is ChEMBL document CHEMBL6087385, “Synthesis and biological evaluation of Ribo 7-N/O/S pyrimidine 9-deaza C-nucleoside analogs as new antiviral agents for inhibiting HCV RNA-dependent RNA polymerases” (Eur J Med Chem, 2024).

A short description of series [1]: Drug concentration in Sprague-Dawley rat liver at 2 mg/kg, iv measured upto 24 hrs in presence of ATP by LC-MS/MS analysis. The settings on record: read-out: Ct. Type of series: ADME, organism-based.
The nature of series [2]: Clearance in female mouse at 1 mg/kg, iv by reverse phase chromatography. As to conditions: in vivo. Type of series: ADME, organism-based.
Series [3] in a line: Toxicity in rat assessed as mortality at 1 to 9 mg/kg, po. As to conditions: in vivo, dose 1-9 mg/kg. The class given is organism-based.
A short description of series [4]: Toxicity in Sprague-Dawley rat assessed as animal death at 90 to 250 mg/kg, po administered as single dose and measured after 14 days. The settings on record: in vivo, 336 h, dose 90-250 mg/kg, time 14 day. Type of series: organism-based.
Series [5] can be described thus: Toxicity in Cynomolgus monkey assessed as emesis at 100 mg/kg, po administered as single dose. Type of series: organism-based, Macaca fascicularis. The settings on record: in vivo.

On to `C[C@@]1(O)[C@H](O)[C@@H](CO)O[C@H]1c1coc2c(N)ncnc12`, for which the concentration at 24 h in series [1] stood at 420 nM. Moreover, the clearance in series [2] is 11.6 mL/min/kg. The Activity result in series [3], in series [4] and in series [5] was “Non-toxic” in each case.

Usually clearance stands for the rate of elimination divided by the concentration.
